# Data published in article PMC11876601 (Molecular Systems Biology, 2025).
# How the values were obtained:
# PDO UME061 = assay: PDO viability assay (CellTiter-Glo, 72 h); format: cell-based; details: Homo sapiens
# Description: Primary patient-derived PDAC organoid (PDO) experiments were performed in the laboratories of Prof. Maximilian Reichert (University Hospital of the TU Munich, Germany, PDO set 1: B250, B535, B678) and Prof. Jens T. Siveke (University Hospital Essen, Germany; PDO set 2: UME008, UME012, UME051, UME053, UME060, UME061). PDOs were generated from surgical resection, EUS-guided fine needle biopsy (EUS-FNB), or ascites (Appendix Table S2). Surgical specimens were first minced with a sterile scalpel and subsequently washed with Anti-Anti solution and washing medium (PDO set 1), or vice versa (PDO set 2; Appendix Table S3). Biopsy samples were directly washed with an Anti-Anti solution and washing medium. Samples were digested using 1 ml of digestion medium at 37 °C while shaking, and the enzymatic reaction was stopped by adding 15 ml of washing medium (Appendix Table S3). […]
# For viability assays in PDOs, confluent organoids were removed from medium, and Matrigel was dissolved by adding 200 μl (PDO set 1) or 2 ml (PDO set 2) of Cell Recovery Solution (Corning), and additionally 500 μl of DPBS (PDO set 1 only). […] After 72 h, cell viability was measured using the CellTiter-Glo Luminescent Cell Viability Assay (Promega) diluted 1:5 in the final volume of the well. […]
# BMP2K = biological target: T1, BMP2K (Homo sapiens, UniProt Q9NSY1); assay: Kinobeads competition pulldown in AsPC-1 lysate; format: binding
# T1 construct: endogenous in cells; host or cells: AsPC-1 lysate
# Description: (§1) This was followed by incubation with Kinobeads ε (17.5 µl of settled beads) for 30 min at 4 °C to enrich kinases. […] Enriched proteins were reduced with 50 mM DTT in 8 M urea, 40 mM Tris-HCl, pH 7.4 for 30 min at room temperature, and alkylated with 55 mM chloroacetamide. After reducing the urea concentration to 1–2 M, proteins were digested with trypsin at 37 °C for 16 h. Subsequently, eluted peptides were desalted using SepPak tC18 µElution plates (Waters), freeze-dried by vacuum centrifugation, and stored at −20 °C.
# (§2) For LC-MS/MS, dried peptides were reconstituted in 0.1% formic acid and analyzed on a Dionex Ultimate3000 nano HPLC (Thermo Scientific) coupled to an Orbitrap Fusion Tribrid mass spectrometer (Thermo Scientific), which was run in data-dependent mode. Peptides were first delivered to a trap column (100 µm × 2 cm, packed in-house with Reprosil-Gold C18 ODS-3 5 µm resin, Dr. Maisch, Ammerbuch) and subsequently washed with solvent A0 (0.1% formic acid in HPLC grade water) at 5 µl/min for 10 min. […] For MS2, up to 12 peptide precursors were isolated (isolation width of 1.2 Th) and subjected to HCD fragmentation using 30% normalized collision energy. […] The duration of dynamic exclusion was set to 30 s.
# (§3) Oxidized methionine and N-terminal acetylation were set as variable modification, and cysteine carbamidomethylation was set as fixed modification. Label-free quantification (LFQ) and match-between-runs were enabled. All searches were performed with 1% PSM and protein FDR.
# (§4) Proteins were filtered by potential contaminants, reversed hits and proteins identified only by site. Residual binding of proteins was calculated from LFQ intensities as the ratio between drug doses and vehicle. […] Only kinases quantified with at least 4 unique peptides in the vehicle experiment were considered. Potential targets were further curated through manual inspection of dose-dependent reduction in MS/MS and unique peptide counts.
# ACVR2 (Homo sapiens) = biological target: T2, ACVR2 (Homo sapiens); assay: Kinobeads competition pulldown in AsPC-1 lysate; format: binding; details: read-out: KDapp
# T2 construct: endogenous in cells; host or cells: AsPC-1 lysate
# Description: as §1, §2, §3, §4
# ACVR1 = biological target: T3, ACVR1 (Homo sapiens, UniProt Q04771); assay: Kinobeads competition pulldown in AsPC-1 lysate; format: binding
# T3 construct: endogenous in cells; host or cells: AsPC-1 lysate
# Description: as §1, §2, §3, §4
# AAK1 = biological target: T4, AAK1 (Homo sapiens, UniProt Q2M2I8); assay: Kinobeads competition pulldown in AsPC-1 lysate; format: binding
# T4 construct: endogenous in cells; host or cells: AsPC-1 lysate
# Description: as §1, §2, §3, §4
# CSNK2A2 = biological target: T5, CSNK2A2 (Homo sapiens, UniProt P19784); assay: Kinobeads competition pulldown in AsPC-1 lysate; format: binding
# T5 construct: endogenous in cells; host or cells: AsPC-1 lysate
# Description: as §1, §2, §3, §4
# CLK4 = system: CLK4; set-up: method as in Reinecke et al. (2023); details: CLK4, 5 cell line mix lysate, Kinobeads ε, ref Reinecke et al. (2023), cited from earlier work
# FLT4 = system: FLT4; set-up: method as in Reinecke et al. (2023); details: FLT4, 5 cell line mix lysate, Kinobeads ε, ref Reinecke et al. (2023), cited from earlier work
# GSKB = biological target: T6, GSKB (Homo sapiens, UniProt P49841); assay: Kinobeads competition pulldown in AsPC-1 lysate; format: binding; details: read-out: KDapp
# T6 construct: endogenous in cells; host or cells: AsPC-1 lysate
# Description: as §1, §2, §3, §4
# GSKA = biological target: T7, GSKA (Homo sapiens, UniProt P49840); assay: Kinobeads competition pulldown in AsPC-1 lysate; format: binding; details: read-out: KDapp
# T7 construct: endogenous in cells; host or cells: AsPC-1 lysate
# Description: as §1, §2, §3, §4
# [1] = Kinobeads residual binding curve
structure (smiles),measurement,setting,value
"Nc1ccn([C@@H]2O[C@H](CO)[C@@H](O)C2(F)F)c(=O)n1 [GEM, Gemcitabine]",EC50,PDO UME061; GEM alone,5.8 nM
same,EC50,"PDO UME061; experiment GEM (GEM alone), mean of replicates",5.78 nM
CNCc1ccc(-c2cc(-c3nc(-c4ccc(S(=O)(=O)C(C)C)cc4)cnc3N)on2)cc1 [Berzosertib],Kd,"BMP2K; AsPC-1 lysate, read-out: KDapp",19.9 nM
same,EC50,BMP2K; [1],35.7 nM
same,Kd,ACVR2 (Homo sapiens),< 1 nM
same,Kd,"ACVR1; AsPC-1 lysate, read-out: KDapp",0.83 nM
same,EC50,ACVR1; [1],2.11 nM
same,Kd,"AAK1; AsPC-1 lysate, read-out: KDapp",19.3 nM
same,EC50,AAK1; [1],36.7 nM
same,Kd,"CSNK2A2; AsPC-1 lysate, read-out: KDapp",219 nM
same,EC50,CSNK2A2; [1],406 nM
COc1cc(N2CCC(N3CCN(C)CC3)CC2)ccc1Nc1ncc(Cl)c(Nc2ccccc2P(C)(C)=O)n1 [Brigatinib],EC50,CLK4,49.2 nM
same,pKDapp,CLK4,7.38
same,Kd,CLK4; read-out: KDapp,41.6 nM
same,EC50,FLT4,369 nM
same,pKDapp,FLT4,6.43
same,Kd,FLT4; read-out: KDapp,369 nM
Nc1nn2cc(F)cnc2c1C(=O)Nc1cncc(F)c1N1CCC(C(=O)N2CCN(C3COC3)CC2)CC1 [Gartisertib],Kd,GSKB,< 10 nM
same,Kd,GSKA,< 10 nM
